From patent publication US11453697B1, “Cyclic di-nucleotide compounds as sting agonists” (Merck Sharp & Dohme Corp., priority 2015, dated 2022)

Test system: IFN-β secretion in THP1 cells
Assay: IFN-β secretion in THP1 cell culture (5 h)
Type: cell-based, human
Settings: not given
Description: The ability of compounds to stimulate the secretion of interferon-beta from THP1 cells was measured using a human IFN-β AlphaLISA kit (Perkin Elmer, Cat. No. AL265F). The basic protocol is as follows:
The cell viability and count was ascertained using a Beckman Coulter V-Cell XR cell counter. The cells suspension was centrifuged at 200×g for 5 min at RT. […] Subsequent liquid transfers were performed using either a Matrix electronic multichannel pipette or an Agilent Bravo Automated Liquid Handling Platform.
The assay was started by dispensing 40 μL of the previously prepared cell suspension into the wells of the plate containing compounds. After 5 h incubation at 37° C., 5% CO2 in a humidified atmosphere, the plate of cells and compounds was centrifuged at 200×g for 5 min at RT. […] To these supernatant-containing wells was added 10 μL of 5× Anti-Analyte Acceptor beads (50 μg/mL of AlphaLISA HiBlock Buffer) and incubated for 30 min at RT while shaking on an orbital plate shaker. To each well was added 10 μL of 5× Biotinylated Antibody Anti-analyte (5 nM in AlphaLISA HiBlock Buffer) and incubated on an orbital plate shaker for 60 min at RT or overnight at 4° C. To each well was added 25 μL of 2× SA-Donor beads (80 μg/mL in AlphaLISA HiBlock Buffer) and incubated for 30-45 min at RT in the dark while shaking on an orbital plate shaker. The plate was then read on a Perkin Elmer Envision (λex=680 nm, λem=[…]). The percent effect of the AlphaLISA signal at each compound concentration was calculated based on 30 uM cGAMP positive controls and 0.3% DMSO negative controls. The plot of percent effect versus the log of compound concentration was fit with a 4-parameter concentration response equation to calculate EC50 values.
Compounds of the disclosure were evaluated for IFN-β secretion in THP1 cell culture as described above.

| SMILES | % Effect at 30 μM relative to 2′3′-cGAMP |
| --- | --- |
| Nc1nc2c(ncn2[C@@H]2O[C@@H]3COP(=O)(O)OC4[C@@H](COP(=O)(O)OC2C3O)O[C@@H](n2cnc3c(N)ncnc32)[C@H]4F)c(=O)[nH]1 (stereo in doubt) [Example 7, (5R,7R,8R,12aR,14R,15S,15aR,16R)-7-(2-amino-6-oxo-1,6-dihydro-9H-purin-9-yl)-14-(6-amino-9H-purin-9-yl)-15-fluoro-16-hydroxyoctahydro-12H-5,8-methanofuro[3,2-l][1,3,6,9,11,2,10] pentaoxadiphosphacyclotetradecine-2,10-diolate 2,10-dioxide] | 112% |
| Nc1nc2c(ncn2[C@@H]2O[C@@H]3COP(=O)(O)OC4C[C@H](n5cnc6c(N)ncnc65)O[C@@H]4COP(=O)(O)OC2C3F)c(=O)[nH]1 (stereo in doubt) [Example 22, 2-amino-9-[(5R,7R,8S,12aR,14R,15aS,16R)-14-(6-amino-9H-purin-9-yl)-16-fluoro-2,10-dihydroxy-2,10-dioxidooctahydro-12H-5,8-methanofuro[3,2-l][1,3,6,9,11,2,10]pentaoxadiphosphacyclotetradecin-7-yl]-1,9-dihydro-6H-purin-6-one] | 109% |
| Nc1nc2c(ncn2[C@@H]2O[C@@H]3COP(=O)(O)OC4C(F)[C@H](n5cnc6c(N)ncnc65)O[C@@H]4COP(=O)(O)OC2C3F)c(=O)[nH]1 (stereo in doubt) [Example 23, 2-amino-9-[(5R,7R,8S,12aR,14R,15R,15aR,16R)-14-(6-amino-9H-purin-9-yl)-15,16-difluoro-2,10-dihydroxy-2,10-dioxidooctahydro-12H-5,8-methanofuro[3,2-l][1,3,6,9,11,2,10]pentaoxadiphosphacyclotetradecin-7-yl]-1,9-dihydro-6H-purin-6-one] | 125% |
| Nc1nc2c(ncn2[C@@H]2O[C@@H]3COP(=O)(O)OC4[C@@H](COP(=O)(O)O[C@H]2C3F)O[C@@H](n2cnc3c(N)ncnc32)[C@H]4F)c(=O)[nH]1 (stereo partly drawn) [Example 26, 2-amino-9-[(2S,5R,7R,8S,10S,12aR,14R,15S,15aR,16R)-14-(6-amino-9H-purin-9-yl)-15,16-difluoro-2,10-dihydroxy-2,10-dioxidooctahydro-12H-5,8-methanofuro[3,2-l][1,3,6,9,11,2,10]pentaoxadiphosphacyclotetradecin-7-yl]-1,9-dihydro-6H-purin-6-one] | 150% |
| Nc1nc2c(ncn2[C@@H]2O[C@@H]3COP(=O)(O)O[C@H]4C[C@H](n5cnc6c(N)ncnc65)O[C@@H]4COP(=O)(O)O[C@@H]2C3)c(=O)[nH]1 [Example 27, 2-amino-9-[(5S,7R,8R,12aR,14R,15aS)-14-(6-amino-9H-purin-9-yl)-2,10-dihydroxy-2,10-dioxidooctahydro-12H-5,8-methanofuro[3,2-l][1,3,6,9,11,2,10]pentaoxadiphosphacyclotetradecin-7-yl]-1,9-dihydro-6H-purin-6-one] | 164% |
| Nc1nc2c(ncn2[C@@H]2O[C@@H]3COP(=O)(O)O[C@H]4[C@@H](O)[C@H](n5cnc6c(N)ncnc65)O[C@@H]4COP(=O)(O)O[C@@H]2[C@H]3O)c(=O)[nH]1 [Example 39, 2-amino-9-[(5R,7R,8R,12aR,14R,15R,15aS,16S)-14-(6-amino-9H-purin-9-yl)-2,10,15,16-tetrahydroxy-2,10-dioxidooctahydro-12H-5,8-methanofuro[3,2-l][1,3,6,9,11,2,10]pentaoxadiphosphacyclotetradecin-7-yl]-1,9-dihydro-6H-purin-6-one] | 74% |
| Nc1nc2c(ncn2[C@@H]2O[C@@H]3COP(=O)(O)O[C@H]4[C@H](O)[C@H](n5cnc6c(N)ncnc65)O[C@@H]4COP(=O)(O)O[C@@H]2[C@@H]3O)c(=O)[nH]1 [Example 48, 2-amino-9-[(5R,7R,8R,12aR,14R,15S,15aS,16R)-14-(6-amino-9H-purin-9-yl)-2,10,15,16-tetrahydroxy-2,10-dioxidooctahydro-12H-5,8-methanofuro[3,2-l][1,3,6,9,11,2,10]pentaoxadiphosphacyclotetradecin-7-yl]-1,9-dihydro-6H-purin-6-one] | 104% |
| Nc1nc2c(ncn2[C@@H]2O[C@@H]3COP(=O)(O)O[C@H]4[C@@H](O)[C@H](n5cnc6c(N)ncnc65)O[C@@H]4COP(=O)(O)O[C@@H]2[C@H]3F)c(=O)[nH]1 [Example 52, 2-amino-9-[(5R,7R,8S,12aR,14R,15R,15aS,16S)-14-(6-amino-9H-purin-9-yl)-16-fluoro-2,10,15-trihydroxy-2,10-dioxidooctahydro-12H-5,8-methanofuro[3,2-l][1,3,6,9,11,2,10]pentaoxadiphosphacyclotetradecin-7-yl]-1,9-dihydro-6H-purin-6-one] | 143% |

Same assay, conditions: IFN-β secretion in THP1 cell culture, 5 h; compound at 30 μM; percent activation relative to 2′3′-cGAMP

| SMILES | % Effect at 30 μM relative to 2′3′-cGAMP |
| --- | --- |
| Nc1nc2c(ncn2[C@@H]2O[C@@H]3COP(=O)(S)O[C@H]4[C@@H](O)[C@H](n5ccc6c(N)ncnc65)O[C@@H]4COP(=O)(S)O[C@@H]2C3)c(=O)[nH]1 (stereo partly drawn) [Example 78, 2-amino-9-[(5S,7R,8R,12aR,14R,15R,15aS)-14-(4-amino-7H-pyrrolo[2,3-d]pyrimidin-7-yl)-15-hydroxy-2,10-dioxido-2,10-disulfanyloctahydro-12H-5,8-methanofuro[3,2-l][1,3,6,9,11,2,10]pentaoxadiphosphacyclotetradecin-7-yl]-1,9-dihydro-6H-purin-6-one] | 162% |
| Nc1nc2c(ncn2[C@@H]2O[C@@H]3COP(=O)(S)O[C@H]4[C@@H](O)[C@H](n5ccc6c(N)ncnc65)O[C@@H]4COP(=O)(S)O[C@@H]2C3)c(=O)[nH]1 (stereo partly drawn) [Example 79, 2-amino-9-[(5S,7R,8R,12aR,14R,15R,15aS)-14-(4-amino-7H-pyrrolo[2,3-d]pyrimidin-7-yl)-15-hydroxy-2,10-dioxido-2,10-disulfanyloctahydro-12H-5,8-methanofuro[3,2-l][1,3,6,9,11,2,10]pentaoxadiphosphacyclotetradecin-7-yl]-1,9-dihydro-6H-purin-6-one] | 145% |
| Nc1nc2c(ncn2[C@@H]2O[C@@H]3COP(=O)(S)O[C@H]4[C@@H](O)[C@H](n5ccc6c(N)ncnc65)O[C@@H]4COP(=O)(S)O[C@@H]2C3)c(=O)[nH]1 (stereo partly drawn) [Example 80, 2-amino-9-[(5S,7R,8R,12aR,14R,15R,15aS)-14-(4-amino-7H-pyrrolo[2,3-d]pyrimidin-7-yl)-15-hydroxy-2,10-dioxido-2,10-disulfanyloctahydro-12H-5,8-methanofuro[3,2-l][1,3,6,9,11,2,10]pentaoxadiphosphacyclotetradecin-7-yl]-1,9-dihydro-6H-purin-6-one] | 234% |
| Nc1nc2c(ncn2[C@@H]2O[C@@H]3COP(=O)(S)OC4[C@@H](COP(=O)(S)O[C@H]2C3)O[C@@H](n2nnc3c(N)ncnc32)[C@H]4F)c(=O)[nH]1 (stereo partly drawn) [Example 133, 2-amino-9-[(5S,7R,8R,12aR,14R,15S,15aR)-14-(7-amino-3H-[1,2,3]triazolo[4,5-d]pyrimidin-3-yl)-15-fluoro-2,10-dihydroxy-2,10-disulfidooctahydro-12H-5,8-methanofuro[3,2-l][1,3,6,9,11,2,10]pentaoxadiphosphacyclotetra-decin-7-yl]-1,9-dihydro-6H-purin-6-one] | 117% |
| Nc1nc2c(ncn2[C@@H]2O[C@@H]3COP(=O)(S)O[C@H]4[C@H](F)[C@H](n5cnc6c(N)ncnc65)O[C@@H]4COP(=O)(O)O[C@@H]2[C@@H]3F)c(=O)[nH]1 (stereo partly drawn) [Example 143, 2-amino-9-[(5R,7R,8S,12aR,14R,15S,15aR,16R)-14-(6-amino-9H-purin-9-yl)-15,16-difluoro-2,10-dihydroxy-10-oxido-2-sulfidooctahydro-12H-5,8-methanofuro[3,2-l][1,3,6,9,11,2,10]pentaoxadiphosphacyclotetra-decin-7-yl]-1,9-dihydro-6H-purin-6-one] | 157% |
| Nc1nc2c(ncn2[C@@H]2O[C@@H]3COP(O)(=S)O[C@H]4[C@@H](F)[C@H](n5cnc6c(N)ncnc65)O[C@@H]4COP(O)(=S)O[C@@H]2[C@@H]3F)c(=O)[nH]1 (stereo partly drawn) [Example 260, 2-amino-9-[(5R,7R,8S,12aR,14R,15R,15aR,16R)-14-(6-amino-9H-purin-9-yl)-15,16-difluoro-2,10-dihydroxy-2,10-disulfidooctahydro-12H-5,8-methanofuro[3,2-l][1,3,6,9,11,2,10]pentaoxadiphosphacyclotetradecin-7-yl]-1,9-dihydro-6H-purin-6-one] | 113% |
| Nc1nc2c(ncn2[C@@H]2S[C@@H]3COP(=O)(O)O[C@H]4[C@H](F)[C@H](n5cnc6c(=O)[nH]cnc65)O[C@@H]4COP(=O)(S)O[C@@H]2[C@@H]3O)c(=O)[nH]1 (stereo partly drawn) [Example 339, 2-amino-9-[(5R,7R,8R,12aR,14R,15S,15aR,16S)-15-fluoro-2,16-dihydroxy-2,10-dioxido-14-(6-oxo-1,6-dihydro-9H-purin-9-yl)-10-sulfanyloctahydro-12H-5,8-methanofuro[3,2-l][1,3,9,11,6,2,10]tetraoxathiadiphosphacyclotetradecin-7-yl]-1,9-dihydro-6H-purin-6-one] | 175% |
